We go through 10 compounds from paper PMC12473123, “Structure–Function Insights into Quinuclidine-3-One BisQACs: Synthesis, Modulation of Bacterial Resistance, Structure–Activity Relationship, and Biological Profiling” (Pharmaceuticals, 2025).

Experiment [1] relates to Staphylococcus aureus ATCC 25923. The experiment is described as follows: Broth microdilution MIC. The experiment is classed as cell-based. The conditions noted are these: for MIC: Staphylococcus aureus, ATCC25923, read-out: Minimum Inhibitory Concentrations (MIC). (In general: Broth dilution looks for growth in wells or tubes with falling amounts of substance.)
Experiment [2] deals with Salmonella enterica (food isolate). Put plainly: Broth microdilution MIC. Particulars: read-out: Minimum Inhibitory Concentrations (MIC). The experiment is classed as cell-based.
In experiment [3] the test system is Staphylococcus aureus Clinical/MRSA. Put plainly: Broth microdilution MIC. The format is cell-based. The conditions noted are these: for MIC: Staphylococcus aureus, MRSA, read-out: Minimum Inhibitory Concentrations (MIC).
For experiment [4], the system named is Pseudomonas aeruginosa ATCC 27853. The experiment is described as follows: Broth microdilution MIC. The experiment is classed as cell-based. The conditions noted are these: Pseudomonas aeruginosa, ATCC27853, read-out: Minimum Inhibitory Concentrations (MIC).
Experiment [5] concerns Bacillus cereus ATCC 14579. Put plainly: Broth microdilution MIC. The experiment is classed as cell-based. The conditions noted are these: ATCC14579, read-out: Minimum Inhibitory Concentrations (MIC), Bacillus cereus ATCC 14579.
For experiment [6], the system named is Escherichia coli ATCC 25922. The experiment is described as follows: Broth microdilution MIC. The format is cell-based. The conditions noted are these: for MIC: Escherichia coli, ATCC25922, read-out: Minimum Inhibitory Concentrations (MIC).
Experiment [7] has as its system Staphylococcus aureus ATCC 33591 (methicillin-resistant). Put plainly: Broth microdilution MIC. The conditions noted are these: for MIC: Staphylococcus aureus, ATCC33591, read-out: Minimum Inhibitory Concentrations (MIC). The format is cell-based.
Experiment [8] has as its system Listeria monocytogenes ATCC 7644. Put plainly: Broth microdilution MIC. The format is cell-based. Particulars: Listeria monocytogenes, ATCC7644, read-out: Minimum Inhibitory Concentrations (MIC), Listeria monocytogenes ATCC 7644.
For experiment [9], the system named is Enterococcus faecalis ATCC 29212. The experiment is described as follows: Broth microdilution MIC. The experiment is classed as cell-based. The conditions noted are these: for MIC: Enterococcus faecalis, ATCC29212, read-out: Minimum Inhibitory Concentrations (MIC), Enterococcus faecalis ATCC 29212.
Experiment [10] concerns Listeria monocytogenes ATCC 7644. The experiment is described as follows: Biofilm inhibition assay (crystal violet). The experiment is classed as cell-based. Particulars: L. monocytogenes. Here is the method: (§1) The ability of the candidate compounds to inhibit biofilm formation was evaluated by determining the minimum biofilm inhibitory concentration (MBIC) against the biofilm-forming strains Staphylococcus aureus ATCC 25923 and Listeria monocytogenes ATCC 7644. Overnight bacterial cultures were diluted in fresh, pre-warmed Mueller–Hinton broth (MHB) and incubated at 37 °C with constant shaking at 220 rpm. Once the cultures reached the exponential growth phase (OD600 = 0.3–0.5), they were standardized to a final concentration of 4 × 10^6 CFU/mL.
(§2) Aliquots (50 µL) of the standardized bacterial suspension were inoculated into 96-well microtiter plates containing the test compounds at final concentrations of 100, 50, 25, and 12.5 µg/mL. Plates were incubated at 37 °C for 24 to 48 h, depending on the bacterial strain. After incubation, the planktonic cells were carefully aspirated to preserve the integrity of the biofilm layer. Wells were gently rinsed with sterile ultrapure Milli-Q water and air-dried at 60 °C for 1 h to fix the biofilms. Biofilm formation was quantified using a crystal violet (CV) staining method. Wells were stained with 100 µL of 0.1% CV solution and incubated at room temperature for 1 h. Excess dye was removed by rinsing with sterile ultrapure Milli-Q water, followed by air-drying. Bound CV was solubilized with 100 µL of 70% ethanol and incubated for 30 min. The solubilized dye was transferred to a fresh plate, and absorbance was measured at 595 nm using a microplate reader (Bio-Tek EL808, Winooski, VT, USA). Absorbance values were directly proportional to biofilm biomass. Untreated bacterial cultures served as positive controls for biofilm formation, while sterile MHB served as the negative control.

Another experiment has as its system HEK293 cells. Put plainly: Cytotoxicity MTS assay. Particulars: HEK293 cells, 48 h, MTS; read-out: IC50 HEK293. The experiment is classed as cell-based, human. Here is the method: (§3) The cytotoxic potential of the selected drug candidates was evaluated using the CellTiter 96® AQueous One Solution Cell Proliferation Assay (Promega, Madison, WI, USA), following the manufacturer’s protocol. Human cell lines RPE1 and HEK293 were cultured at 37 °C in a humidified incubator with 5% CO2. Test compounds were dissolved in the appropriate growth medium and serially diluted across a range of concentrations in 96-well microtiter plates. Each well was seeded with 5000 cells and incubated for 48 h under standard culture conditions. Following this incubation period, 20 µL of MTS reagent was added to each well, and the plates were further incubated for 3 h to allow for color development. Absorbance was measured at 490 nm using a microplate reader to determine cell viability. Cytotoxicity was quantified as the half-maximal inhibitory concentration (IC50), defined as the concentration of compound that reduced cell viability by 50%. […] IC50 values were calculated using GraFit 6.0 software by plotting compound concentration against absorbance and fitting the data to a sigmoidal dose–response curve.
A general note: Formazan colour is commonly taken as a measure of viable cells.

Another experiment deals with RPE1 cells. Put plainly: Cytotoxicity MTS assay. The experiment is classed as cell-based, human. Particulars: RPE1 cells, 48 h, MTS; read-out: IC50 RPE1. Here is the method:
as §3

Experiment [11] concerns Staphylococcus aureus ATCC 25923. The experiment is described as follows: Biofilm inhibition assay (crystal violet). The format is cell-based. How it is done:
as §1
as §2, with “Plates” for “Aliquots (50 µL) of the standardized bacterial suspension were inoculated into 96-well microtiter plates containing the test compounds at final concentrations of 100, 50, 25, and 12.5 µg/mL. Plates”

As usually defined, the IC50 is the concentration needed to halve the response being measured. As usually defined, the inhibition is how much of the control response was suppressed.

Turning to `CCCCCCCCCCCCNC1C[N+]2(CCC[N+]34CCC(CC3)C(NCCCCCCCCCCCC)C4)CCC1CC2` (racemic) [2(QC12)3, (±)-1,1′-(Propane-1,3-diyl) bis(3-(dodecylamino)quinuclidinium) dibromide], the MIC in experiment [1] was 75 µM; in [2], 75 µM; in [3] it was above 75 µM; in experiment [4], above 75 µM; in [5] it was above 75 µM; in experiment [6], above 75 µM. The results for the MIC in experiment [7], in [8] and in experiment [9] were 75 µM, 38 µM and above 75 µM, respectively.
Take `CCCCCCCCCCCCNC1C[N+]2(CCCC[N+]34CCC(CC3)C(NCCCCCCCCCCCC)C4)CCC1CC2` (racemic) [2(QC12)4, (±)-1,1′-(Butane-1,4-diyl) bis(3-(dodecylamino)quinuclidinium) dibromide]: the MIC in experiment [1], in experiment [2], in experiment [3], in experiment [4], in [5] and in experiment [6] was above 75 µM throughout. Besides, the MIC in [7] was 75 µM; in [8], 75 µM; in experiment [9] it was above 75 µM.
As to `CCCCCCCCCCCCNC1C[N+]2(CCCCCC[N+]34CCC(CC3)C(NCCCCCCCCCCCC)C4)CCC1CC2` (racemic) [2(QC12)6, (±)-1,1′-(Hexane-1,6-diyl) bis(3-(dodecylamino)quinuclidinium) dibromide], the MIC in experiment [1] was 75 µM; in [2] it was above 75 µM; in experiment [3] it was above 75 µM; in experiment [4], above 75 µM; in experiment [5], above 75 µM; in experiment [6] it was 38 µM. The MIC stood at 19 µM in experiment [7], 38 µM in experiment [8] and 75 µM in [9].
For the compound `CCCCCCCCCCCCCCNC1C[N+]2(CCC[N+]34CCC(CC3)C(NCCCCCCCCCCCCCC)C4)CCC1CC2` (racemic) [2(QC14)3, (±)-1,1′-(Propane-1,3-diyl) bis(3-(tetradecylamino)quinuclidinium) dibromide], the MIC in experiment [1] was 75 µM; in experiment [2], above 75 µM; in experiment [3] it was above 75 µM; in experiment [4] it was above 75 µM; in experiment [5], above 75 µM; in experiment [6], above 75 µM. Moreover, the results for the MIC in [7], in experiment [8] and in [9] were 75 µM, 38 µM and above 75 µM, respectively.
For the compound `CCCCCCCCCCCCCCNC1C[N+]2(CCCC[N+]34CCC(CC3)C(NCCCCCCCCCCCCCC)C4)CCC1CC2` (racemic) [2(QC14)4, (±)-1,1′-(Butane-1,4-diyl) bis(3-(tetradecylamino)quinuclidinium) dibromide], the MIC in [1], in [2], in [3], in experiment [4], in experiment [5] and in experiment [6] was above 75 µM in each case. The MIC in [7] was 75 µM; in [8], above 75 µM; in experiment [9], above 75 µM.
`O=C1C[N+]2(CCC[N+]34CCC(CC3)C(=O)C4)CCC1CC2` [2(QO)3, 1,1′-(Propane-1,3-diyl) bis(3-oxoquinuclidinium) dibromide]: the MIC in experiment [1], in experiment [2], in experiment [3], in experiment [4], in experiment [5] and in experiment [6] was above 75 µM each time. In addition, the MIC in [7], in [8] and in experiment [9] was above 75 µM throughout.
With `O=C1C[N+]2(CCCC[N+]34CCC(CC3)C(=O)C4)CCC1CC2` [2(QO)4, 1,1′-(Butane-1,4-diyl) bis(3-oxoquinuclidinium) dibromide], the MIC in experiment [1], in [2], in experiment [3], in [4], in experiment [5] and in experiment [6] was above 75 µM throughout. For the same compound, the MIC in [7], in experiment [8] and in experiment [9] was above 75 µM in each case.
In the case of `O=C1C[N+]2(CCCCCC[N+]34CCC(CC3)C(=O)C4)CCC1CC2` [2(QO)6, 1,1′-(Hexane-1,6-diyl) bis(3-oxoquinuclidinium) dibromide], the MIC in [1], in [2], in experiment [3], in experiment [4], in experiment [5] and in [6] was above 75 µM throughout. Moreover, the MIC in experiment [7], in experiment [8] and in experiment [9] was above 75 µM in each case.
For the compound `CCCCCCCCCCCC[N+](C)(C)Cc1ccccc1.[Br-]` [BAB, benzyldodecyldimethylammonium bromide, reference compound], the “Minimum Inhibitory Concentrations (MIC)” value came to 10 µM in experiment [1] (Staphylococcus aureus ATCC 25923); 25 µM in experiment [3] (Staphylococcus aureus Clinical/MRSA); 63 µM in experiment [6] (Escherichia coli ATCC 25922); 25 µM in experiment [7] (Staphylococcus aureus ATCC 33591); 15 µM in experiment [9] (Enterococcus faecalis ATCC 29212). In addition, the MIC in experiment [2] stood at 50 µM. In addition, the biofilm inhibition result in experiment [10] (12.5 µg/mL) is “comparable values”; in experiment [10] (25 µg/mL) it was 20%; in [10] (50 µg/mL), “remaining consistent”; in experiment [10] (100 µg/mL) it was 44%; in experiment [11] (S. aureus ATCC 25923, across all tested concentrations) it was above 74%. For the same compound, the IC50 in the experiment with HEK293 cells turned out to be 3 µM; with RPE1 cells, 0.82 µM.
For `CO/N=C(\C(=O)N[C@@H]1C(=O)N2C(C(=O)O)=C(COC(C)=O)CS[C@H]12)c1csc(N)n1` [CFX, cefotaxime, reference compound], the biofilm inhibition result in [10] (12.5 µg/mL) is recorded as “similarly low values”; in experiment [11] (S. aureus ATCC 25923, 50 µg/mL), 62%. In experiment [10] (Listeria monocytogenes, ATCC7644, 25 µg/mL, read-out: biofilm inhibition), the inhibition at 25 µg/mL came out at 6%. For the same compound, in experiment [10] (Listeria monocytogenes, ATCC7644, 50 µg/mL, read-out: biofilm inhibition), the inhibition at 50 µg/mL was above 20%. Moreover, the inhibition at 100 µg/mL in experiment [10] (Listeria monocytogenes, ATCC7644, 100 µg/mL, read-out: biofilm inhibition) is above 20%.
